Data reported in US12109305B2, “Materials architecture for gastric residence systems” (Lyndra Therapeutics, Inc., priority 2016, dated 2024).

Experiment: Degradation of time-dependent coupling polymer components in simulated gastric fluid
Format: physicochemical
Details: seven days
Text: Additional preferred polymers for use as coupling polymers are time-dependent polymers, that is, polymers that degrade in a time-dependent manner in the gastric environment.

degradation / retention of strength in simulated gastric fluid: degrades in a time-dependent manner
Structure (SMILES): CC(=O)OCC(COC(C)=O)OC(C)=O [triacetin]
